Molecules are shown by their SMILES.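 Five concentrations, 48 hours, 96-well plates. GI50 is the concentration that inhibits growth by half.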 Activity calls are given as the source filed them. No stated cut-off is given here; in the data, active = GI50 up to about 1.1 µM and inactive = higher. Where a SMILES comes first, the peptide text is derived from it. Peptide text beside a SMILES is read from it. [ ]: non-standard residue; d: D form. The star is where a group is joined. ξ: configuration not given here. ξD = NC(CC(=O)O)C(=O)O; Ac3c = NC1(C(=O)O)CC1; Boc = CC(C)(C)OC(=O)*; OBn = c1ccc(CO*)cc1

Test systems include SF-295; ACHN; U-251; LOX IMVI; HT-29; DU-145; TK-10; NCI-H460; NCI-H522; COLO 205; SF-539; Malme-3M; CCRF-CEM; HOP-92; HCT-15; BT-549; SW-620; EKVX; SN12C.
Common to all, as to assay: DTP human tumour cell line panel, 48 h

As usually defined, the GI50 is the concentration giving 50% growth inhibition. For `c1ccc2c(c1)cc1c3[nH]c4ccccc4c3ccn21`, the GI50 with SF-295, in the test with ACHN, with U-251, in the test with LOX IMVI, in the test with HT-29 and with DU-145 was > 10 µM (inactive) throughout. In addition, the GI50 in the test on TK-10 is > 10 µM (inactive); in the test on NCI-H460, > 10 µM (inactive); with NCI-H522, > 10 µM (inactive); in the test with COLO 205 it was 1.61 µM (inactive); with SF-539, > 10 µM (inactive); in the test with Malme-3M, 1.65 µM (inactive). The GI50 with CCRF-CEM was 8.32 µM (inactive); in the test on HOP-92, > 10 µM (inactive); with HCT-15 it was > 10 µM; in the test with BT-549, > 10 µM (inactive); with SW-620, 6.78 µM (inactive); in the test on EKVX it was > 10 µM (inactive). Besides, the GI50 in the test with SN12C was > 10 µM (inactive).
Take `COC(=O)C1(NC(=O)C(CC(=O)OCc2ccccc2)NC(=O)OC(C)(C)C)CC1` (stereo not drawn) (Boc-[ξD](OBn)-[Ac3c]-OMe): the GI50 in the test on SF-295, with ACHN, in the test with U-251, with LOX IMVI, in the test with HT-29 and in the test on DU-145 was > 100 µM (inactive) in each case. The GI50 in the test on TK-10, in the test with NCI-H460, in the test with NCI-H522, in the test on COLO 205, in the test with SF-539 and in the test with Malme-3M was > 100 µM (inactive) throughout. Besides, the GI50 in the test on CCRF-CEM is > 100 µM (inactive); with HOP-92, > 100 µM (inactive); in the test with HCT-15, > 100 µM; in the test on BT-549, > 100 µM (inactive); in the test on SW-620, > 100 µM (inactive); in the test with EKVX it was > 100 µM (inactive). Also, the GI50 in the test with SN12C is > 100 µM (inactive).
As for `CC1=CCCC(C)(O)C2CC(CCC3(C)OC3CC1)C(C)C(=O)O2` (stereo not drawn), the GI50 in the test on SF-295, in the test on ACHN, with U-251, with LOX IMVI, in the test on HT-29 and in the test with DU-145 was > 100 µM (inactive) in each case. Also, the GI50 in the test with TK-10, with NCI-H460, in the test on NCI-H522, in the test on COLO 205, in the test with SF-539 and in the test with Malme-3M was > 100 µM (inactive) each time. Besides, the GI50 in the test with CCRF-CEM is > 100 µM (inactive); in the test on HOP-92 it was > 10 µM (inactive); in the test on HCT-15 it was > 100 µM; with BT-549, > 100 µM (inactive); in the test on SW-620, > 100 µM (inactive); in the test with EKVX it was > 100 µM (inactive). Also, the GI50 in the test with SN12C was > 100 µM (inactive).
For the compound `CSc1nc(=S)[nH]c2c1c(C)nn2-c1ccccc1`, the GI50 is 22.9 µM (inactive) in the test with SF-295; 21.9 µM (inactive) in the test with ACHN; 29.4 µM (inactive) with U-251; 15.7 µM (inactive) in the test with LOX IMVI; 28.5 µM (inactive) in the test with HT-29; 15.6 µM (inactive) with DU-145. Further, the GI50 in the test on TK-10 is 24.4 µM (inactive); in the test with NCI-H460, 10.2 µM (inactive); in the test with NCI-H522, 19.1 µM (inactive); with COLO 205 it was 20.1 µM (inactive); with SF-539, 28.1 µM (inactive); in the test with Malme-3M it was 17.1 µM (inactive). Also, the GI50 was 10.6 µM (inactive) with CCRF-CEM; 7.1 µM (inactive) in the test on HOP-92; 20.3 µM with HCT-15; 19.7 µM (inactive) in the test with BT-549; 34.5 µM (inactive) with SW-620; 18.1 µM (inactive) in the test with EKVX. The GI50 in the test with SN12C is 21.1 µM (inactive).
`C[N+](C)(C)c1nc(N)nc2c1ncn2C1OC(CO)C(O)C1O` (stereo not drawn): the GI50 in the test on ACHN, with U-251, in the test on LOX IMVI, with HT-29, in the test on DU-145 and in the test with TK-10 was > 100 µM (inactive) throughout. In addition, the GI50 with NCI-H460 is > 100 µM (inactive); in the test on NCI-H522 it was > 100 µM (inactive); in the test on COLO 205, > 100 µM (inactive); in the test on SF-539, > 100 µM (inactive); in the test on Malme-3M it was > 100 µM (inactive); with CCRF-CEM, 3.08 µM (inactive). In addition, the GI50 with HOP-92 was > 100 µM (inactive); in the test on HCT-15, > 100 µM; with BT-549 it was > 100 µM (inactive); with SW-620 it was > 100 µM (inactive); in the test with EKVX, > 100 µM (inactive); in the test with SN12C, > 100 µM (inactive).
On to `CC(=O)[C@H]1[C@H](O)C[C@@]2(C)[C@@H]3CCc4cc(O)c(OC5OC(CO)C(O)C(O)C5O)cc4C3(C)C(=O)C[C@]12C` (stereo partly drawn), for which the GI50 in the test with SF-295, in the test on ACHN, with U-251, in the test with LOX IMVI, in the test on HT-29 and in the test on DU-145 was > 100 µM (inactive) in each case. Besides, the GI50 in the test on TK-10, in the test on NCI-H460, with NCI-H522, with COLO 205, in the test on SF-539 and in the test with Malme-3M was > 100 µM (inactive) each time. Besides, the GI50 is > 100 µM (inactive) in the test on CCRF-CEM; > 100 µM (inactive) in the test on HOP-92; > 100 µM in the test on HCT-15; > 100 µM (inactive) in the test with BT-549; > 100 µM (inactive) in the test on SW-620; > 100 µM (inactive) in the test with EKVX. The GI50 in the test with SN12C was > 100 µM (inactive).
Take `CC(=O)NC(CS)C(=O)NC(CO)C(=O)NC(CO)C(=O)NC(Cc1c[nH]c2ccccc12)C(=O)N1CCCC1C(=O)NC(CO)C(=O)NC(Cc1c[nH]c2ccccc12)C(=O)NC(Cc1c[nH]cn1)C(=O)NC(CO)C(=O)NC(Cc1c[nH]c2ccccc12)C(=O)NCC(=O)NCC(=O)NC(C)C(=O)NC(CCC(N)=O)C(=O)NC(CCCCN)C(=O)NC(C)C(=O)NC(CCCNC(=N)N)C(=O)NC(CCCCN)C(N)=O` (stereo not drawn) (Ac-CSSWPSWHSWGGAQKARK-NH2; configuration not given here): the GI50 in the test with SF-295 is > 50 µM (inactive); in the test with ACHN it was 17.7 µM (inactive); in the test with U-251 it was 13 µM (inactive); in the test on LOX IMVI it was 46.3 µM (inactive); in the test with HT-29, > 50 µM (inactive); with DU-145, 16.8 µM (inactive). Besides, the GI50 with TK-10 is > 50 µM (inactive); in the test with NCI-H460, 12.4 µM (inactive); in the test with NCI-H522, 20.5 µM (inactive); in the test with COLO 205 it was 12.8 µM (inactive); with SF-539 it was 17.1 µM (inactive); in the test on Malme-3M, 10.8 µM (inactive). Besides, the GI50 in the test with CCRF-CEM is 17.7 µM (inactive); with HOP-92 it was > 50 µM (inactive); with HCT-15, 41.3 µM; in the test with BT-549, 14.4 µM (inactive); in the test on SW-620, 23.4 µM (inactive); with EKVX it was 28.3 µM (inactive). For the same compound, in the test with SN12C, the GI50 is 43 µM (inactive).
For the compound `O=C(NNC(=S)Nc1ccc(Cl)cc1)C12CC3CC(CC(C3)C1)C2`, the GI50 in the test on SF-295 was 5.87 µM (inactive); in the test with ACHN, 4.19 µM (inactive); with U-251 it was 3.6 µM (inactive); with LOX IMVI, 2.53 µM (inactive); with HT-29 it was 3.78 µM (inactive); in the test with DU-145, 11.6 µM (inactive). Moreover, the GI50 in the test with TK-10 was 16.5 µM (inactive); in the test on NCI-H460, 2.97 µM (inactive); in the test on NCI-H522, 3.58 µM (inactive); with COLO 205 it was 3.32 µM (inactive); in the test with SF-539, 3.93 µM (inactive); with Malme-3M, 7.98 µM (inactive). For the same compound, the GI50 in the test on CCRF-CEM was 1.29 µM (inactive); with HOP-92, 11.3 µM (inactive); in the test with HCT-15 it was 3.18 µM; in the test with BT-549, 11.6 µM (inactive); with SW-620, 3.76 µM (inactive); in the test with EKVX, 5.73 µM (inactive). Further, the GI50 in the test on SN12C was 6.52 µM (inactive).
Regarding `NCCCc1c(-c2ccccc2)[nH]c(N)nc1=O`, the GI50 in the test on SF-295, in the test with ACHN, with U-251, in the test on LOX IMVI, with HT-29 and in the test on DU-145 was > 100 µM (inactive) throughout. Also, the GI50 in the test on TK-10, with NCI-H460, with NCI-H522, with COLO 205, in the test on SF-539 and with Malme-3M was > 100 µM (inactive) each time. For the same compound, the GI50 in the test on CCRF-CEM was > 100 µM (inactive); in the test with HOP-92 it was > 100 µM (inactive); with HCT-15, > 100 µM; with BT-549, > 100 µM (inactive); with SW-620, > 100 µM (inactive); in the test on EKVX, > 100 µM (inactive). Also, the GI50 in the test with SN12C is > 100 µM (inactive).
As for `O=C(CSCC(=O)N/N=C/c1ccc2c(c1)OCO2)N/N=C/c1ccc2c(c1)OCO2`, the GI50 in the test with SF-295 is 44.6 µM (inactive); in the test with ACHN, > 100 µM (inactive); with U-251, > 100 µM (inactive); in the test on LOX IMVI it was > 100 µM (inactive); in the test with HT-29, > 100 µM (inactive); in the test on DU-145 it was > 100 µM (inactive). For the same compound, the GI50 is > 100 µM (inactive) with TK-10; > 100 µM (inactive) in the test with NCI-H460; 64.1 µM (inactive) in the test with NCI-H522; > 100 µM (inactive) in the test with SF-539; 49.2 µM (inactive) in the test on Malme-3M; 82.2 µM (inactive) in the test on CCRF-CEM. Further, the GI50 is > 100 µM (inactive) in the test with HOP-92; > 100 µM with HCT-15; > 100 µM (inactive) with BT-549; > 100 µM (inactive) in the test on SW-620; 55.8 µM (inactive) in the test on EKVX; > 100 µM (inactive) with SN12C.

Values taken from ChEMBL document CHEMBL1201862, “PubChem BioAssay data set” (2004).
